Test results from patent US5698546A, “Cyclic polyamines” (Johnson Matthey Public Limted Company, priority 1994, dated 1997).
Counter-ions that a name gives are not always drawn. Like-named read-outs stand apart in the source and are kept apart here.

Columns and labels:
[1] = test system: HIV-1 (HTLV-IIIB); assay: microbe, parasite or virus in culture; assay type: cell-based
[2] = test system: HIV-2 (LAV-2 ROD); assay: MT-4 cells challenged with HIV-2, viability by MTT method (antiviral activity); assay type: cell-based, Human Immunodeficiency Virus; conditions: for IC50: Human immunodeficiency virus 2, MT4, 120 h
[3] = octanol/buffer partition coefficient; assay type: physicochemical; conditions: for logD: octanol/buffer
From the text: The compounds were additionally studied to determine their partition coefficients as between octanol and water, in standard tests at various pH values. A partition coefficient greater than unity at pH 7-9 is generally considered to be a good indication that the compound will be absorbed through the upper gastrointestinal tract when dosed orally.

[4] = cytotoxicity in MT-4 cells, MTT method; conditions: human
[5] = test system: cells; conditions: in words; cited from earlier work
[6] = solubility in water; assay type: physicochemical; conditions: dimer believed to be the meso 2R,2'S isomer, characterised by the applicant
[7] = literature (Barefield et al); cited from earlier work
[8] = HIV-2 (ROD), MT-4 cells, 5 days at 37° C., read-out: IC50
[9] = CC50, HIV-1 (IIIB) part of Table 1, 5 days at 37° C.
[10] = CC50, HIV-2 (ROD) part of Table 1, 5 days at 37° C.
[11] = Human immunodeficiency virus 1, MT4, 120 h, HIV-1 (IIIB), MT-4 cells, 5 days at 37° C., read-out: IC50
[12] = Human immunodeficiency virus 1, IIIB, MT4, 120 h

| Compound | CC50 at 120 h [4, 9] [µg/mL] | CC50 at 120 h [4, 10] [µg/mL] | SI (Selectivity Index, ratio of CC50 to IC50) ([1]; HIV-1 (IIIB), MT-4 cells) | SI (Selectivity Index, ratio of CC50 to IC50) ([2]; HIV-2 (ROD), MT-4 cells) | IC50 [1, 12] [µg/mL] | IC50 [2] [µg/mL] | logD ([3]; pH 8) | logD ([3]; pH 9) | further results |
| --- | --- | --- | --- | --- | --- | --- | --- | --- | --- |
| c1cc(CN2CCCNCCNCCCNCC2)ccc1CN1CCCNCCNCCCNCC1 [Compound L, 1,1'-[1,4-phenylenebis(methylene)]bis-1,4,8,11-tetraazacyclotetra-decane octahydrobromide dihydrate, reference compound] | > 250 | > 250 | – | – | – | – | – | – | IC50 ([1]; Human immunodeficiency virus 1, IIIB, MT4, 120 h, read-out: IC50): 0.0068 µg/mL; IC50 [2, 8]: 0.009 µg/mL; octanol/buffer partition coefficient ([3]; pH 7): 0.0016; octanol/buffer partition coefficient ([3]; pH 8): 0.005; octanol/buffer partition coefficient ([3]; pH 9): 0.16 |
| c1cc2nc(c1)CCNCCCN(Cc1ccc(CN3CCCNCCc4cccc(n4)CCNCCC3)cc1)CCCNCC2 [Compound F, 8,8'-[1,4-Phenylenebis(methylene)]bis-4,8,12,19-tetraazabicyclo[15.3.1]nonadeca-1(19),15,17-triene octahydrobromide heptahydrate] | 199 | 171 | 336 | 102 | – | – | – | – | IC50 [1, 11]: 0.59 µg/mL; IC50 [2, 8]: 1.68 µg/mL |
| c1cc(CN2CCCNCCOCCNCCC2)ccc1CN1CCCNCCOCCNCCC1 [Compound J, 8,8'-[1,4-Phenylenebis(methylene)]bis-1-oxa-4,8,12-triazatetradecane-hexahydro bromide trihydrate] | > 250 | > 250 | > 54 | > 116 | 4.62 | 2.15 | -1.92 | -0.131 | logD ([3]; pH 7): -2.52 |
| c1cc2nc(c1)CNCCCN(Cc1ccc(CN3CCCNCc4cccc(n4)CNCCC3)cc1)CCCNC2 [Compound A, 7,7'-[1,4-Phenylenebis(methylene)]bis-3,7,11,17-tetraazabicyclo[13.3.1heptadeca-1(17),13,15-trienehexahydrobromide hexahydrate] | > 250 | > 250 | – | – | 0.719 | 3.51 | -0.963 | 0.713 | – |
| Cc1cn([C@H]2C[C@H](N=[N+]=[N-])[C@@H](CO)O2)c(=O)[nH]c1=O [AZT] | – | – | – | – | – | – | – | – | toxicity to cells [5]: high toxicity to cells |
| Clc1cc2nc(c1)CNCCCN(Cc1ccc(CN3CCCNCc4cc(Cl)cc(n4)CNCCC3)cc1)CCCNC2 [Compound B, 7,7'-[1,4-Phenylenebis(methylene)]bis[15-chloro-3,7,11,17-tetraazabicyclo[13.3.1]heptadeca-1(17),13,15-triene]hexahydrobromide monoacetate] | 12.5 | – | 14 | – | 0.89 | – | 0.588 | 1.46 | logD ([3]; pH 7): -1 |
| COc1cc2nc(c1)CNCCCN(Cc1ccc(CN3CCCNCc4cc(OC)cc(n4)CNCCC3)cc1)CCCNC2 [Compound C, 7,7'-[1,4-Phenylenebis(methylene)]bis[15-methoxy-3,7,11,17-tetraazabicyclo-[13.3.1]heptadeca-1(17),13,15-triene] hexahydrobromide dihydrate] | 229 | > 250 | 64 | – | 3.57 | 9.74 | -0.959 | -0.0605 | – |
| c1cc2nc(c1)CCNCCN(Cc1ccc(CN3CCNCCc4cccc(n4)CCNCC3)cc1)CCNCC2 [Compound E, 7,7'-[1,4-Phenylenebis(methylene)]bis-4,7,10,17-tetraazabicyclo-[13.3.1]heptadeca-1(17),13,15-triene octahydrobromide tetrahydrate] | > 250 | > 250 | – | – | 0.0014 | 0.001 | -1.44 | 0.479 | logD ([3]; pH 7): -2.4 |
| C1CNCCNCCCN[C@H]([C@H]2CNCCCNCCNCCCN2)CNC1 [meso 2R,2'S isomer] | – | – | – | – | – | – | – | – | solubility in water [6]: soluble |
| C1CNCCNCCCNC(C2CNCCCNCCNCCCN2)CNC1 (stereo not drawn) [2,2'-dimer of cyclam] | – | – | – | – | – | – | – | – | solubility in water [7]: insoluble in water |
| c1cc(CN2CCNCc3cccc(n3)CNCC2)cc(CN2CCNCc3cccc(n3)CNCC2)c1 [Compound H, 6,6'-[1,3-Phenylenebis(methylene)]bis-3,6,9,15-tetraazabicyclo[11.3.1]pentadeca-1(15),11,13-triene hexahydrobromide trihydrate] | 32.1 | 30.7 | 309 | 1.12 × 10^4 | – | – | – | – | IC50 [1, 11]: 0.104 µg/mL; IC50 [2, 8]: 0.0027 µg/mL |
| c1cc2nc(c1)CNCCN(Cc1ccc(CN3CCNCc4cccc(n4)CNCCNCc4cccc(n4)C3)cc1)Cc1cccc(n1)CNCCNC2 [Compound K, 17,17'-[1,4-Phenylene-bis(methylene)]bis-3,6,14,17,23,24-hexaazatricyclo[17.3.1.1^8,12] tetracosa-1(23),8,10,12(24),19,21-hexnene octahydrobromide] | 4.59 | 5.89 | < 1 | < 1 | 4.59 | 5.89 | -1.15 | 0.25 | – |
| c1cc2nc(c1)CNCCN(Cc1ccc(CN3CCNCc4cccc(n4)CNCC3)cc1)CCNC2 [Compound G, 6,6'-[1,4'-Phenylenebis(methylene)]bis-3,6,9,15-tetraazabicyclo[11.3.1]pentadeca-1(15),11,13-triene hexahydromide trihydrate] | 6 | 4.71 | – | 31 | – | – | – | – | IC50 [1, 11]: 0.62 µg/mL; IC50 [2, 8]: 0.15 µg/mL |
| O=c1cc2[nH]c(c1)CNCCCN(Cc1ccc(CN3CCCNCc4cc(=O)cc([nH]4)CNCCC3)cc1)CCCNC2 [Compound D, 7,7'-[1,4-Phenylenebis(methylene)]bis-3,7,11,17-tetraazabicyclo-[13.3.1]-heptadeca-13,16-triene-15-one octahydrobromide] | > 218 | > 250 | < 1 | < 1 | > 218 | > 250 | -1.6 | -0.638 | – |
